Results reported in US5104854A (priority 1991, dated 1992).
Read-outs that look alike come from different tables or passages of the source. Residues, ends and D or L forms follow the SMILES beside them. No end group written: not given here.

Tests used:
uninfected cells = conditions: tissue culture cells
[1] = test system: A/WSN strain of influenza virus; format: cell-based
[2] = test system: intracellular virus protein synthesis; format: cell-based, Sindbis virus; conditions: peptide 0.1 mg/ml
[3] = test system: vesicular stomatitis virus; format: cell-based
[4] = test system: viral nucleoprotein and matrix protein; format: cell-based, influenza virus
[5] = test system: viral ribonucleoprotein particles (RNP)
Semliki Forest virus = conditions: 4 h, 1 mg/ml

viral ribonucleoprotein particles (RNP), sequence (P15682 whole entry): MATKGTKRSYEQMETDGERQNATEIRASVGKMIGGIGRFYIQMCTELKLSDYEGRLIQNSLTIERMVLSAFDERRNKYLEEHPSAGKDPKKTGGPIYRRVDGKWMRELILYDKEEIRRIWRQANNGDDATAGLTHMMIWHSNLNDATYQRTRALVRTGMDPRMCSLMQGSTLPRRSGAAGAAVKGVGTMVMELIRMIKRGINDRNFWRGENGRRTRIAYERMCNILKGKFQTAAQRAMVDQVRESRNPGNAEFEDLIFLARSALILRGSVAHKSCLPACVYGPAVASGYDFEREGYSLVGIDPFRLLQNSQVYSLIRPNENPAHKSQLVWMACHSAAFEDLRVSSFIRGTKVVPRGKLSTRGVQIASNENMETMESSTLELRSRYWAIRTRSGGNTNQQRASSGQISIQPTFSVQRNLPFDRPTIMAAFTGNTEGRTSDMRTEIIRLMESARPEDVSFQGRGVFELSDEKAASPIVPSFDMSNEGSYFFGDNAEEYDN

CCCCCCCC(=O)N[C@@H](CC(C)C)C(=O)N[C@H](C(=O)N1CCC[C@H]1C(=O)N[C@@H](Cc1ccc(O)cc1)C(=O)N[C@@H](C)C(=O)N[C@@H](CC(C)C)C(=O)N[C@@H](C)C(N)=O)[C@@H](C)O [OCTANOYLATED HEPTAPEPTIDE L-T-P-Y-A-L-A, L-T-P-Y-A-L-A] (HELM PEPTIDE1{[CCCCCCCC(=O)[*:2]].L.T.P.Y.A.L.A.[am]}$$$$V2.0)
increase of inhibitory potency by addition of an octanoyl group (Sindbis virus): 10 fold | effect on uninfected cells (uninfected cells): no effect | effect on cells infected with influenza [1]: no effect | inhibition of intracellular virus protein synthesis [2]: no inhibition | effect on cells infected with vesicular stomatitis virus [3]: no effect | inhibition of vesicular stomatitis virus formation and secretion [3]: no inhibition

N-G-S-L-Q-C-R-I-C-I-NH2 (NGSLQCRICI-NH2; cysteine pairing not given here) [HA2 (213-222), residues 213-222 at the carboxy terminus of the HA2 of A/WSN strain of influenza virus]
changes in synthesis of intracellular viral nucleoprotein and matrix protein ([4]; increasing amounts of peptide): No significant changes | Incorporation (% of control) ([4]; peptide level 20 μg/ml): 110 +/-12 % of control | Incorporation (% of control) ([4]; peptide level 50 μg/ml): 108 +/-12 % of control | Incorporation (% of control) ([4]; peptide level 100 μg/ml): 94 +/-9 % of control | Incorporation (% of control) ([4]; peptide level 200 μg/ml): 83 % of control | Incorporation (% of control) ([4]; peptide level 250 μg/ml): 97 % of control | block in the release of Sindbis virus (Sindbis virus; 200 μg/ml): no block | half-maximal dose, inhibition of virus particle secretion [1]: less than 50 μg/ml | inhibition of release of influenza virus particles ([1]; 150 μg/ml peptide (RNP test)): 70% | inhibition of release of influenza virus ([1]; 200 μg/ml): 90% | block of virus particle secretion ([1]; 250 μg/ml (225 μM)): > 90% | IC50 ([1]; read-out: half-maximal dose, inhibition of virus particle secretion): < 45 µM | nucleoprotein in the RNP peak, % of the total cytoplasmic nucleoprotein [5]: 19% | block of release of vesicular stomatitis virus ([3]; 200 μg/ml): 15%

N-G-S-L-Q-C-R-I (NGSLQCRI) [8 amino acid peptide lacking the two carboxy-terminal amino acids of HA2 (213-222)]
inhibition of influenza virus release ([1]; specificity tests, E2 (391-399) at 1 mg/ml in FIG. 2): non-inhibitory

LTPYAL-NH2 [HEXAPEPTIDE L-T-P-Y-A-L, L-T-P-Y-A-L]
Degree of Inhibition (Semliki Forest virus): 36%
